Reference: ChEMBL document CHEMBL1909294, “Translating clinical findings into knowledge in drug safety evaluation--drug induced liver injury prediction system (DILIps)” (PLoS Comput Biol, 2011)

What was measured:
Hepatotoxicity [1] = test system: Hepatotoxicity;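 for HepSE Combined Scores: combined hepatic side effect score as listed in the training data of the Drug Induced Liver Injury Prediction System (DILIps)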;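 for HepSE cholecystitis: Cholecystitis-related hepatic side effect score drawn from the DILIps (drug-induced liver injury prediction) training data set; call rule not given here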;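 for HepSE hepatic necrosis: score of hepatic side effects for hepatic necrosis, drawn from the training data of DILIps, a prediction system for drug-induced liver injury; call rule not given here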;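 for HepSE hepatomegaly: hepatic side effect score for hepatomegaly, taken from the training set of the DILIps drug-induced liver injury prediction system; call rule not given here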;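 for HepSE liver fatty: hepatic side effect score for fatty liver, taken from the DILIps training set for predicting drug-induced liver injury; call rule not given here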;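 for HepSE liver function tests abnormal: hepatic side effect score taken from the DILIps (drug-induced liver injury prediction system) training data, here covering abnormal liver function test findings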
Hepatotoxicity [2] = test system: Hepatotoxicity; remark: listed apart in the source;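 for HepSE Combined Scores: combined hepatic side effect score as listed in the training data of the Drug Induced Liver Injury Prediction System (DILIps)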;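 for HepSE cholecystitis: Cholecystitis-related hepatic side effect score drawn from the DILIps (drug-induced liver injury prediction) training data set; call rule not given here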;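 for HepSE hepatic necrosis: score of hepatic side effects for hepatic necrosis, drawn from the training data of DILIps, a prediction system for drug-induced liver injury; call rule not given here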;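 for HepSE hepatomegaly: hepatic side effect score for hepatomegaly, taken from the training set of the DILIps drug-induced liver injury prediction system; call rule not given here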;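 for HepSE liver fatty: hepatic side effect score for fatty liver, taken from the DILIps training set for predicting drug-induced liver injury; call rule not given here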;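 for HepSE liver function tests abnormal: hepatic side effect score taken from the DILIps (drug-induced liver injury prediction system) training data, here covering abnormal liver function test findings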
Hepatotoxicity [3] = test system: Hepatotoxicity; remark: listed apart in the source;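 for HepSE Combined Scores: combined hepatic side effect score as listed in the training data of the Drug Induced Liver Injury Prediction System (DILIps)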;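 for HepSE cholecystitis: Cholecystitis-related hepatic side effect score drawn from the DILIps (drug-induced liver injury prediction) training data set; call rule not given here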;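 for HepSE hepatic necrosis: score of hepatic side effects for hepatic necrosis, drawn from the training data of DILIps, a prediction system for drug-induced liver injury; call rule not given here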;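 for HepSE hepatomegaly: hepatic side effect score for hepatomegaly, taken from the training set of the DILIps drug-induced liver injury prediction system; call rule not given here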;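 for HepSE liver fatty: hepatic side effect score for fatty liver, taken from the DILIps training set for predicting drug-induced liver injury; call rule not given here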;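 for HepSE liver function tests abnormal: hepatic side effect score taken from the DILIps (drug-induced liver injury prediction system) training data, here covering abnormal liver function test findings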
Hepatotoxicity [4] = test system: Hepatotoxicity; remark: listed apart in the source;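 for HepSE Combined Scores: combined hepatic side effect score as listed in the training data of the Drug Induced Liver Injury Prediction System (DILIps)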;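 for HepSE hepatic necrosis: score of hepatic side effects for hepatic necrosis, drawn from the training data of DILIps, a prediction system for drug-induced liver injury; call rule not given here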;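 for HepSE hepatomegaly: hepatic side effect score for hepatomegaly, taken from the training set of the DILIps drug-induced liver injury prediction system; call rule not given here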;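 for HepSE liver fatty: hepatic side effect score for fatty liver, taken from the DILIps training set for predicting drug-induced liver injury; call rule not given here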;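 for HepSE liver function tests abnormal: hepatic side effect score taken from the DILIps (drug-induced liver injury prediction system) training data, here covering abnormal liver function test findings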
Hepatotoxicity [5] = test system: Hepatotoxicity; remark: listed apart in the source
Hepatotoxicity [6] = test system: Hepatotoxicity; remark: listed apart in the source
Hepatotoxicity [7] = test system: Hepatotoxicity; remark: listed apart in the source
Hepatotoxicity [8] = test system: Hepatotoxicity; remark: listed apart in the source
Hepatotoxicity [9] = test system: Hepatotoxicity; remark: listed apart in the source
Hepatotoxicity [10] = test system: Hepatotoxicity; remark: listed apart in the source
Hepatotoxicity [11] = test system: Hepatotoxicity; remark: listed apart in the source
Hepatotoxicity [12] = test system: Hepatotoxicity; remark: listed apart in the source
Hepatotoxicity [13] = test system: Hepatotoxicity; remark: listed apart in the source
Hepatotoxicity [14] = test system: Hepatotoxicity; remark: listed apart in the source

| Compound | HepSE_liver function tests abnormal (Hepatotoxicity [1]) | HepSE_hepatomegaly (Hepatotoxicity [2]) | HepSE_hepatic necrosis (Hepatotoxicity [3]) | HepSE_hepatitis (Hepatotoxicity [4]) | HepSE_Combined Scores (Hepatotoxicity [5]) | HepSE_bilirubinemia (Hepatotoxicity [6]) | HepSE_liver fatty (Hepatotoxicity [7]) | HepSE_cholecystitis (Hepatotoxicity [8]) | HepSE_hepatic failure (Hepatotoxicity [9]) | HepSE_cirrhosis (Hepatotoxicity [10]) | HepSE_liver disease (Hepatotoxicity [11]) | HepSE_elevated liver function tests (Hepatotoxicity [12]) | HepSE_jaundice (Hepatotoxicity [13]) | HepSE_cholelithiasis (Hepatotoxicity [14]) | further results |
| --- | --- | --- | --- | --- | --- | --- | --- | --- | --- | --- | --- | --- | --- | --- | --- |
| CNC[C@H](O)c1ccc(O)c(O)c1 [EPINEPHRINE] | – | – | – | – | – | – | – | – | – | – | – | – | – | – | HepSE_liver function tests abnormal (Hepatotoxicity [1]; Liver): 0; HepSE_hepatomegaly (Hepatotoxicity [2]; Liver): 0; HepSE_hepatic necrosis (Hepatotoxicity [3]; Liver): 0; HepSE_hepatitis (Hepatotoxicity [4]; Liver): 0; HepSE_Combined Scores (Hepatotoxicity [5]; Liver): 0; HepSE_bilirubinemia (Hepatotoxicity [6]; Liver): 0; HepSE_liver fatty (Hepatotoxicity [7]; Liver): 0; HepSE_cholecystitis (Hepatotoxicity [8]; Liver): 0; HepSE_hepatic failure (Hepatotoxicity [9]; Liver): 0; HepSE_cirrhosis (Hepatotoxicity [10]; Liver): 0; HepSE_liver disease (Hepatotoxicity [11]; Liver): 0; HepSE_elevated liver function tests (Hepatotoxicity [12]; Liver): 0; HepSE_jaundice (Hepatotoxicity [13]; Liver): 0; HepSE_cholelithiasis (Hepatotoxicity [14]; Liver): 0 |
| O=C1C(CC[S+]([O-])c2ccccc2)C(=O)N(c2ccccc2)N1c1ccccc1 (stereo not drawn) [SULFINPYRAZONE] | 0 | 0 | 0 | 0 | 0 | 0 | 0 | 0 | 0 | 0 | 0 | 0 | 0 | 0 | – |
| [H]/N=C(\N/C(=N/[H])NCCCCCCNC(=N)NC(=N)Nc1ccc(Cl)cc1)Nc1ccc(Cl)cc1 [CHLORHEXIDINE] | 0 | 0 | 0 | 0 | 0 | 0 | 0 | 0 | 0 | 0 | 0 | 0 | 0 | 0 | – |
| CNCC[C@@H](Oc1ccccc1C)c1ccccc1 [ATOMOXETINE] | 1 | 0 | 0 | 0 | 1 | 0 | 0 | 0 | 0 | 0 | 0 | 0 | 0 | 0 | – |
| Nc1ccn([C@@H]2CS[C@H](CO)O2)c(=O)n1 [LAMIVUDINE] | 0 | 1 | 0 | 0 | 3 | 0 | 1 | 0 | 0 | 0 | 0 | 0 | 1 | 0 | – |
| CN(C)S(=O)(=O)c1ccc2c(c1)N(CCCN1CCC(CCO)CC1)c1ccccc1S2 [PIPOTIAZINE] | 0 | 0 | 0 | 0 | 1 | 0 | 0 | 0 | 0 | 0 | 0 | 0 | 1 | 0 | – |
| CC(C)(C)NC(=O)[C@@H]1C[C@@H]2CCCC[C@@H]2CN1C[C@@H](O)[C@H](Cc1ccccc1)NC(=O)[C@H](CC(N)=O)NC(=O)c1ccc2ccccc2n1 | – | – | – | – | – | – | – | – | – | – | – | – | – | – | HepSE_liver function tests abnormal (Hepatotoxicity [1]; Liver): 0; HepSE_hepatomegaly (Hepatotoxicity [2]; Liver): 1; HepSE_hepatic necrosis (Hepatotoxicity [3]; Liver): 0; HepSE_hepatitis (Hepatotoxicity [4]; Liver): 1; HepSE_Combined Scores (Hepatotoxicity [5]; Liver): 7; HepSE_bilirubinemia (Hepatotoxicity [6]; Liver): 1; HepSE_liver fatty (Hepatotoxicity [7]; Liver): 0; HepSE_cholecystitis (Hepatotoxicity [8]; Liver): 0; HepSE_hepatic failure (Hepatotoxicity [9]; Liver): 0; HepSE_cirrhosis (Hepatotoxicity [10]; Liver): 0; HepSE_liver disease (Hepatotoxicity [11]; Liver): 1; HepSE_elevated liver function tests (Hepatotoxicity [12]; Liver): 1; HepSE_jaundice (Hepatotoxicity [13]; Liver): 1; HepSE_cholelithiasis (Hepatotoxicity [14]; Liver): 1 |
| Cc1cn([C@H]2C[C@H](N=[N+]=[N-])[C@@H](CO)O2)c(=O)[nH]c1=O [ZIDOVUDINE] | 0 | 1 | 0 | 1 | 4 | 1 | 0 | 0 | 0 | 0 | 0 | 0 | 1 | 0 | – |
| Nc1nc2ccc(OC(F)(F)F)cc2s1 [RILUZOLE] | 0 | 0 | 0 | 1 | 3 | 0 | 0 | 1 | 0 | 0 | 0 | 0 | 1 | 0 | – |
| CN1C(CSCC(F)(F)F)Nc2cc(Cl)c(S(N)(=O)=O)cc2S1(=O)=O (stereo not drawn) [POLYTHIAZIDE] | 0 | 0 | 0 | 0 | 1 | 0 | 0 | 0 | 0 | 0 | 0 | 0 | 1 | 0 | – |
| CCCNC(=O)NS(=O)(=O)c1ccc(Cl)cc1 [CHLORPROPAMIDE] | 0 | 0 | 0 | 0 | 1 | 0 | 0 | 0 | 0 | 0 | 0 | 0 | 1 | 0 | – |
| CO/N=C(\C(=O)N[C@@H]1C(=O)N2C(C(=O)OCOC(=O)C(C)(C)C)=C(/C=C\c3scnc3C)CS[C@H]12)c1csc(N)n1 [CEFDITOREN PIVOXIL] | 1 | 0 | 0 | 0 | 1 | 0 | 0 | 0 | 0 | 0 | 0 | 0 | 0 | 0 | – |
| C[C@]12C/C(=C/O)C(=O)C[C@@H]1CC[C@@H]1[C@@H]2CC[C@@]2(C)[C@H]1CC[C@]2(C)O [OXYMETHOLONE] | 0 | 0 | 1 | 0 | 2 | 0 | 0 | 0 | 0 | 0 | 0 | 0 | 1 | 0 | – |
| CC(C)n1c(/C=C/C(O)CC(O)CC(=O)O)c(-c2ccc(F)cc2)c2ccccc21 (stereo not drawn) [FLUVASTATIN] | – | – | – | – | – | – | – | – | – | – | – | – | – | – | HepSE_liver function tests abnormal (Hepatotoxicity [1]; Liver): 0; HepSE_hepatomegaly (Hepatotoxicity [2]; Liver): 0; HepSE_hepatic necrosis (Hepatotoxicity [3]; Liver): 1; HepSE_hepatitis (Hepatotoxicity [4]; Liver): 1; HepSE_Combined Scores (Hepatotoxicity [5]; Liver): 4; HepSE_bilirubinemia (Hepatotoxicity [6]; Liver): 0; HepSE_liver fatty (Hepatotoxicity [7]; Liver): 0; HepSE_cholecystitis (Hepatotoxicity [8]; Liver): 0; HepSE_hepatic failure (Hepatotoxicity [9]; Liver): 0; HepSE_cirrhosis (Hepatotoxicity [10]; Liver): 1; HepSE_liver disease (Hepatotoxicity [11]; Liver): 0; HepSE_elevated liver function tests (Hepatotoxicity [12]; Liver): 0; HepSE_jaundice (Hepatotoxicity [13]; Liver): 1; HepSE_cholelithiasis (Hepatotoxicity [14]; Liver): 0 |
| CN(C)CCC=C1c2ccccc2CCc2ccccc21 [AMITRIPTYLINE] | 0 | 0 | 0 | 1 | 3 | 0 | 0 | 0 | 1 | 0 | 0 | 0 | 1 | 0 | – |
| NS(=O)(=O)Cc1noc2ccccc12 [ZONISAMIDE] | 0 | 0 | 0 | 0 | 3 | 0 | 0 | 1 | 0 | 0 | 0 | 0 | 1 | 1 | – |
| OC[C@H]1O[C@@H](n2cnc3c2NC=NC[C@H]3O)C[C@@H]1O [PENTOSTATIN] | 1 | 0 | 0 | 0 | 3 | 0 | 0 | 0 | 0 | 0 | 1 | 1 | 0 | 0 | – |
